Data set [1] deals with Pseudomonas aeruginosa. Type of data set: cell-based.
Data set [2] deals with Pseudomonas aeruginosa and Staphylococcus aureas. Type of data set: cell-based.
Data set [3] relates to Staphylococcus aureas. Type of data set: cell-based.

As for `C[N+](C)(CCCNC(=O)CCCCCCCC=CCCCCCCCC(=O)NCCC[N+](C)(C)CC(=O)[O-])CC(=O)[O-]` (mixture of isomers) [Mix-32, C18 DiBetaine], the “Adjuvant 1 h, mL separation” value is 0 mL; the “Anionic 1 h, mL separation” value is 0 mL; the “Nonionic 1 h, mL separation” value is 0 mL; the “Adjuvant 24 h, mL separation” value amounted to 0 mL. Besides, the “Anionic 24 h, mL separation” value is recorded as 0 mL.

On to `C=CCCCCCCCC(=O)NCCC[N+](C)(C)C` [C10-18, C10 DMAPA Quat], for which, in data set [1], the “% Kill, Pseudomonas aeruginosa, 400 ppm” value was determined as 28.9% and the “% Kill, Pseudomonas aeruginosa, DI water” value was 29.6%. In addition, the “Overall Rating” value in data set [2] is “good”. Besides, in data set [3], the “% Kill, Staphylococcus aureas, 400 ppm” value is reported as 71.8% and the “% Kill, Staphylococcus aureas, DI water” value is on record as 75.9%.

For the molecule `C=CCCCCCCCC(=O)NCCC[N+](C)(C)CC(=O)[O-]` [C10-22, C10 DMAPA Betaine], the “Adjuvant 1 h, mL separation” value is given as 0 mL; the “Anionic 1 h, mL separation” value was 0 mL; the “Adjuvant 24 h, mL separation” value came out at 0 mL; the “Anionic 24 h, mL separation” value was 0 mL. Moreover, the “Nonionic 24 h, mL separation” value came to 0.5 mL.

Consider `C=CCCCCCCCC(=O)NCCC[N+](C)(C)CC(O)CS(=O)(=O)[O-]` (centres unmarked) [C10-24, C10 DMAPA Sulfobetaine], for which the “Adjuvant 1 h, mL separation” value is listed as 0 mL; the “Anionic 1 h, mL separation” value is reported as 0 mL; the “Nonionic 1 h, mL separation” value is 0.5 mL; the “Adjuvant 24 h, mL separation” value worked out at 0 mL. The “Anionic 24 h, mL separation” value amounted to 0 mL and the “Nonionic 24 h, mL separation” value amounted to 0.5 mL.

As to `C=CCCCCCCCC(=O)NCCC[N+](C)(C)Cc1ccccc1.[Cl-]` [C10-31, C10 DMAPA Benzyl Quat], in data set [1], the “% Kill, Pseudomonas aeruginosa, 400 ppm” value is 47.4% and the “% Kill, Pseudomonas aeruginosa, DI water” value is listed as 47.5%. For the same molecule, the “Overall Rating” value in data set [2] is given as “superior”. For the same molecule, in data set [3], the “% Kill, Staphylococcus aureas, 400 ppm” value is listed as 65.5% and the “% Kill, Staphylococcus aureas, DI water” value is given as 79.7%.

As to `C=CCCCCCCCC[N+](C)(C)C` [C10-42, C10 Amine DMS Quat], the “Adjuvant 1 h, mL separation” value is listed as 0 mL; the “Anionic 1 h, mL separation” value is recorded as 0 mL; the “Adjuvant 24 h, mL separation” value is recorded as 0 mL; the “Anionic 24 h, mL separation” value worked out at 0 mL.

Consider `CC/C=C/CCCCCCCC(=O)NCCC[N+](C)(C)C` [C12-18], for which, in data set [1], the “% Kill, Pseudomonas aeruginosa, 400 ppm” value came out at 40.5% and the “% Kill, Pseudomonas aeruginosa, DI water” value worked out at 58.7%. The “Overall Rating” value in data set [2] is “good”. Besides, in data set [3], the “% Kill, Staphylococcus aureas, 400 ppm” value is 66.3% and the “% Kill, Staphylococcus aureas, DI water” value is reported as 42.4%.

Consider `CC/C=C/CCCCCCCC(=O)NCCC[N+](C)(C)CC(=O)[O-]` [C12-22, C12 DMAPA Betaine], for which the “Adjuvant 1 h, mL separation” value was determined as 0 mL; the “Anionic 1 h, mL separation” value is recorded as 0 mL; the “Nonionic 1 h, mL separation” value was determined as 0 mL; the “Adjuvant 24 h, mL separation” value is reported as 0 mL. For the same molecule, the “Anionic 24 h, mL separation” value was found to be 0 mL.

Take `CC/C=C/CCCCCCCC(=O)NCCC[N+](C)(C)CC(O)CS(=O)(=O)[O-]` (centres unmarked) [C12-24, C12 DMAPA Sulfobetaine]: the “Adjuvant 1 h, mL separation” value is recorded as 0 mL; the “Anionic 1 h, mL separation” value was 0 mL; the “Nonionic 1 h, mL separation” value came to 0.25 mL; the “Adjuvant 24 h, mL separation” value was 0 mL. Besides, the “Anionic 24 h, mL separation” value was 0 mL and the “Nonionic 24 h, mL separation” value was found to be 1 mL.

As to `CC/C=C/CCCCCCCC[N+](C)(C)Cc1ccccc1` [C12-27, C12 Amine Benzyl Quat], the “Adjuvant 1 h, mL separation” value is on record as 0 mL; the “Anionic 1 h, mL separation” value is on record as 0 mL; the “Adjuvant 24 h, mL separation” value was 0 mL; the “Anionic 24 h, mL separation” value was 0 mL. Further, in data set [1], the “% Kill, Pseudomonas aeruginosa, 400 ppm” value turned out to be 59.5% and the “% Kill, Pseudomonas aeruginosa, DI water” value is on record as 51.2%. The “Overall Rating” value in data set [2] is listed as “good”. For the same molecule, in data set [3], the “% Kill, Staphylococcus aureas, 400 ppm” value is reported as 63.5% and the “% Kill, Staphylococcus aureas, DI water” value stood at 46.0%.

As for `CCCCCC/C=C/CCCCCCCC(=O)NCCC[N+](C)(C)CC(=O)[O-]` [C16-13, C16 DMAPA Betaine], the “Anionic 1 h, mL separation” value was determined as 0 mL and the “Anionic 24 h, mL separation” value came to 0.25 mL.

On to `CCCCCC/C=C/CCCCCCCC[N+](C)(C)Cc1ccccc1` [C16-17, C16 Amine Benzyl Quat], for which, in data set [1], the “% Kill, Pseudomonas aeruginosa, 400 ppm” value is given as 39.4% and the “% Kill, Pseudomonas aeruginosa, DI water” value turned out to be 42.6%. The “Overall Rating” value in data set [2] was “superior”. Also, in data set [3], the “% Kill, Staphylococcus aureas, 400 ppm” value came to 42.5% and the “% Kill, Staphylococcus aureas, DI water” value was determined as 48.1%.

On to `C[N+](C)(C)CCCNC(=O)CCCCCCC/C=C/CCCCCCCC(=O)NCCC[N+](C)(C)C` [C18-27, C18 DiDMAPA DiQuat], for which, in data set [1], the “% Kill, Pseudomonas aeruginosa, 400 ppm” value was 19.8% and the “% Kill, Pseudomonas aeruginosa, DI water” value was 38.9%. In data set [2], the “Overall Rating” value is recorded as “good”. For the same molecule, in data set [3], the “% Kill, Staphylococcus aureas, 400 ppm” value was 17.7% and the “% Kill, Staphylococcus aureas, DI water” value amounted to 55.4%.

Turning to `C[N+](C)(C)CCCNC(=O)CCCCCCC/C=C/CCCCCCCC(=O)NCCC[N+](C)(C)[O-]` [C18-35, C18 DiDMAPA Quat AO], in data set [1], the “% Kill, Pseudomonas aeruginosa, 400 ppm” value came to 34.4% and the “% Kill, Pseudomonas aeruginosa, DI water” value was 29.3%. Further, the “Overall Rating” value in data set [2] is reported as “good”. In data set [3], the “% Kill, Staphylococcus aureas, 400 ppm” value is reported as 35.7% and the “% Kill, Staphylococcus aureas, DI water” value is 55.1%.

In the case of `CN(C)CCCNC(=O)CCCCCCC/C=C/CCCCCCCC(=O)NCCC[N+](C)(C)CC(=O)[O-]` [C18-36, C18 DiDMAPA MonoBetaine], the “Adjuvant 1 h, mL separation” value turned out to be 0 mL; the “Anionic 1 h, mL separation” value is 0 mL; the “Nonionic 1 h, mL separation” value is recorded as 0 mL; the “Adjuvant 24 h, mL separation” value is listed as 0 mL. Also, the “Anionic 24 h, mL separation” value worked out at 0 mL.

Consider `C[N+](C)([O-])CCCNC(=O)CCCCCCC/C=C/CCCCCCCC(=O)NCCC[N+](C)(C)CC(=O)[O-]` [C18-37, C18 DiDMAPA Betaine AO], for which the “Adjuvant 1 h, mL separation” value worked out at 0 mL; the “Anionic 1 h, mL separation” value turned out to be 0 mL; the “Nonionic 1 h, mL separation” value worked out at 0 mL; the “Adjuvant 24 h, mL separation” value was 0 mL. Further, the “Anionic 24 h, mL separation” value came to 0 mL.

For `C[N+](C)(C)CCCNC(=O)CCCCCCC/C=C/CCCCCCCC(=O)NCCC[N+](C)(C)CC(=O)O` [C18-38, C18 DiDMAPA Betaine Quat], in data set [1], the “% Kill, Pseudomonas aeruginosa, 400 ppm” value was determined as 18.8% and the “% Kill, Pseudomonas aeruginosa, DI water” value was 42.2%. In addition, the “Overall Rating” value in data set [2] is recorded as “good”. Also, in data set [3], the “% Kill, Staphylococcus aureas, 400 ppm” value came out at 30.3% and the “% Kill, Staphylococcus aureas, DI water” value is on record as 57.4%.

On to `C[N+](C)(CCCNC(=O)CCCCCCC/C=C/CCCCCCCC(=O)NCCC[N+](C)(C)Cc1ccccc1)Cc1ccccc1.[Cl-].[Cl-]` [C18-65, C18 DiDMAPA Benzyl Quat], for which, in data set [1], the “% Kill, Pseudomonas aeruginosa, 400 ppm” value worked out at 24.7% and the “% Kill, Pseudomonas aeruginosa, DI water” value was found to be 30.4%. For the same molecule, in data set [2], the “Overall Rating” value was “good”. In data set [3], the “% Kill, Staphylococcus aureas, 400 ppm” value is listed as 20.6% and the “% Kill, Staphylococcus aureas, DI water” value was determined as 55.6%.

Regarding `C[N+](C)(CCCNC(=O)CCCCCCC/C=C/CCCCCCCC(=O)NCCC[N+](C)(C)CC(O)CS(=O)(=O)[O-])CC(O)CS(=O)(=O)[O-]` (centres unmarked) [Mix-31, C18 DiSulfobetaine], the “Adjuvant 1 h, mL separation” value is recorded as 0 mL; the “Anionic 1 h, mL separation” value came to 0 mL; the “Nonionic 1 h, mL separation” value is 0 mL; the “Adjuvant 24 h, mL separation” value came out at 0 mL. The “Anionic 24 h, mL separation” value is 0 mL.

Turning to `CN(C)CCCNC(=O)CCCCCCC/C=C/CCCCCCCC(=O)NCCC[N+](C)(C)C` [Mix-34, C18 DiDMAPA MonoQuat], in data set [1], the “% Kill, Pseudomonas aeruginosa, 400 ppm” value was found to be 24.1% and the “% Kill, Pseudomonas aeruginosa, DI water” value worked out at 47.5%. In addition, the “Overall Rating” value in data set [2] is reported as “good”. In addition, in data set [3], the “% Kill, Staphylococcus aureas, 400 ppm” value worked out at 28.6% and the “% Kill, Staphylococcus aureas, DI water” value is recorded as 57.5%.

On to `CN(C)CCCNC(=O)CCCCCCC/C=C/CCCCCCCC(=O)NCCC[N+](C)(C)CC(=O)[O-]` [Mix-36, C18 DiDMAPA MonoBetaine], for which the “Anionic 1 h, mL separation” value was determined as 0 mL; the “Nonionic 1 h, mL separation” value amounted to 0 mL; the “Anionic 24 h, mL separation” value is reported as 0 mL; the “Nonionic 24 h, mL separation” value amounted to 0 mL.

With `C[N+](C)([O-])CCCNC(=O)CCCCCCC/C=C/CCCCCCCC(=O)NCCC[N+](C)(C)CC(=O)[O-]` [Mix-37, C18 DiDMAPA Betaine AO], the “Anionic 1 h, mL separation” value worked out at 0 mL; the “Nonionic 1 h, mL separation” value is 0 mL; the “Adjuvant 24 h, mL separation” value is recorded as 0.5 mL; the “Nonionic 24 h, mL separation” value is 0 mL.

For the molecule `C[N+](C)(C)CCCNC(=O)CCCCCCC/C=C/CCCCCCCC(=O)NCCC[N+](C)(C)CC(=O)O` [Mix-38, C18 DiDMAPA Betaine Quat], the “Adjuvant 1 h, mL separation” value is reported as 0.5 mL; the “Nonionic 1 h, mL separation” value came to 0 mL; the “Adjuvant 24 h, mL separation” value is listed as 0.5 mL; the “Nonionic 24 h, mL separation” value was determined as 0 mL.

On to `COC(=O)CCCCCCC/C=C/CCCCCCCC(=O)NCCC[N+](C)(C)CC(=O)[O-]` [Mix-48, C18 Ester DMAPA Betaine], for which the “Adjuvant 1 h, mL separation” value amounted to 0 mL; the “Anionic 1 h, mL separation” value is recorded as 0 mL; the “Nonionic 1 h, mL separation” value was found to be 0 mL; the “Adjuvant 24 h, mL separation” value was 0 mL. The “Anionic 24 h, mL separation” value amounted to 0 mL and the “Nonionic 24 h, mL separation” value was determined as 0.5 mL.

`C[N+](C)(CCCNC(=O)CCCCCCC/C=C/CCCCCCCC(=O)NCCC[N+](C)(C)Cc1ccccc1)Cc1ccccc1.[Cl-].[Cl-]` [Mix-65, C18 DiDMAPA Benzyl Quat]: in data set [1], the “% Kill, Pseudomonas aeruginosa, 400 ppm” value was 26.1% and the “% Kill, Pseudomonas aeruginosa, DI water” value was determined as 30.5%. In addition, the “Overall Rating” value in data set [2] was “good”. Besides, in data set [3], the “% Kill, Staphylococcus aureas, 400 ppm” value turned out to be 22.1% and the “% Kill, Staphylococcus aureas, DI water” value worked out at 55.3%.

For the origin of these results see patent publication US9416099B2 (priority 2010, dated 2016).
